Laboratory results from US11064704B2, “Natural product formulations with improved residual insect repellent/deterrent activity” (University of Mississippi, priority 2016, dated 2021).

Tested on: mosquitoes
Assay: in vivo direct skin application bioassay
Conditions: 12.5% application rate
Protocol: Direct skin application bioassays were conducted by using a powder-free latex glove (Diamond Grip, Microflex Corporation, Reno, Nev.). An opening of 3×4 cm was cut through the glove to fit on dorsal surface of the hand (FIG. 1). After wearing the glove, a wristband was used to avoid the biting on the hand near the border of the glove. Approximately, 500 (±5%), consisting primarily of females were transferred to a test cage (45×45×45 cm) using an aspirator. A series of dosages were tested to determine MED for repellency as well as residual activity against mosquitoes. A single test consisted of covering the hand of a volunteer with a powder-free latex glove and treating 12 cm^2 surface area, cut through the glove, on dorsal surface of the hand. Marked skin surface area was treated with the test compound in 50 μl of total volume. Because of constrain of man power, only one volunteer who was provided with a written informed consent participated in this study. A protocol approved by the University of Mississippi Human Use Institutional Review Board (IRB protocol #15-070) was followed.
The test started when the hand treated (3×4 cm area cut through the glove on the dorsal surface) with a test compound was inserted into the mosquito cage. […] Any treatment with […] females biting during 1 min test period was considered as “passed” whereas a treatment with ≥5 bites out of 500 mosquitoes was considered as “failed”. In case of passing the next lower and in case of failure next higher serial dose was tested to reach MED. Additionally, data on the residual repellent activity was recorded by exposing the treatments to the females after every 30 minutes until the treatment failed. Carrot essential oil, carotol and DEET and the mixtures were tested.
Direct skin application bioassays were conducted by using a powder-free latex glove (Diamond Grip™, Microflex Corporation, Reno, Nev.). An opening of 3×4 cm was cut through the glove to fit on the dorsal surface of the hand. After donning the glove, a wristband was used to avoid biting on the hand near the border of the glove. Approximately 500 (±5%) mosquitoes, consisting primarily of females, were transferred to a test cage (45×45×45 cm) using an aspirator. A series of dosages were tested to determine MED for repellency as well as residual activity against mosquitoes.
A single test consisted of covering the hand of a volunteer with a powder-free latex glove and treating a 12 cm^2 surface area, cut through the glove, on the dorsal surface of the hand. Marked skin surface area was treated with the test compound in 50 μl of total volume. Because of constraints of man power, only one volunteer who was provided with a written informed consent participated in this study. A protocol approved by the University of Mississippi Human Use Institutional Review Board (IRB Protocol #15-070) was followed.
The test started when the hand treated (3×4 cm area cut through the glove on the dorsal surface) with a test compound was inserted into the mosquito cage. […] Any treatment with ≤5 females biting during the 1 min test period was considered as “passed”, whereas a treatment with ≥5 bites out of 500 mosquitoes was considered as “failed”. In case of passing, the next lower, and in case of failure, the next higher, serial dose was tested to reach MED. Additionally, data on the residual repellent activity were recorded by exposing the treatments to the females after every 30 minutes until the treatment failed. Carrot seed essential oil, carotol, geranium and lemon Eucalyptus essential oils, DEET, picaridin and the mixtures were tested.

CCCCCCCCCCC(=O)O [Undecanoic acid, undecanoic acid, reference compound]
residual activity: time post application at which MED reached/crossed: 1.5 h
